From patent publication US7176276B2, “Antimicrobial peptide and use thereof” (Toagosei Co., Ltd., priority 2003, dated 2007) come the findings set out here.

What all share (type): cell-based
The test system of test [1] is Bacillus subtilis ATCC 6633. The following applies: ATCC 6633, 24 h. As for the experimental part:
(§1) Gram-Positive Bacteria: • Staphylococcus aureus IFO 12732 • Staphylococcus aureus COL1 (MRSA) • Bacillus cereus IFO 3001 • Bacillus subtilis ATCC 6633 • Micrococcus luteus IFO 12708
(§2) That is, each sample was diluted with a liquid bouillon medium (mfd. by DIFCO, product name “NUTRIENT BROTH Dehydrated”) to a peptide concentration of 500, 250, 125, 62.5, 31.3, 15.6, 7.8, 3.9, 1.9, 1.0 or 0.5 […] and dispensed in 150 μl portions into a 96 well microplate. On the other hand, a cell suspension (about 2×10^6 cells/ml) prepared by statically culturing each strain at 37° C. for 18 hours in LB Broth, Lennox (mfd. by DIFCO) was inoculated into each well of the 96 well microplate in an amount equivalent to that of the drug solution (the aforementioned peptide-containing bouillon medium). After the inoculation, the culturing was started in an incubator of 37° C., and the presence of bacterial growth was examined based on the turbidity after 24 hours. The minimum peptide concentration by which increase in the turbidity due to bacterial growth was not observed at the time of the measurement was defined as the MIC in this Example.

In another test the test system is Bacillus cereus IFO 3001. To be noted: IFO 3001, 24 h. As for the experimental part:
as §1, §2

In test [2] the test system is Micrococcus luteus IFO 12708. The following applies: IFO 12708, 24 h. How it is done: as §1, §2
In test [3] the test system is Staphylococcus aureus IFO 12732. The following applies: IFO 12732, 24 h. How it is done:
as §1, §2

The subject of test [4] is Salmonella enteritidis IFO 3313. To be noted: IFO 3313, 24 h. How it is done:
as §2

The test system of test [5] is Pseudomonas aeruginosa ATCC 10145. The following applies: ATCC 10145, 24 h. As for the experimental part: (§3) Escherichia coli IFO 12713 • Escherichia coli 0157:H7 sakai • Klebsiella pneumoniae ATCC 4352 • Pseudomonas aeruginosa ATCC 10145
as §2

The subject of test [6] is Klebsiella pneumoniae ATCC 4352. The following applies: ATCC 4352, 24 h. As for the experimental part: as §3, §2
The test system of test [7] is Escherichia coli IFO 12713. The following applies: IFO 12713, 24 h. How it is done: as §3, §2
Test [8] relates to Staphylococcus aureus COL1 (MRSA). To be noted: COL1, 24 h. How it is done:
as §1, §2

Ends that are not written are not given here.

As for “RLLRKWWWKRLL-NH2 (C-terminus assumed) [Sample 1, RLLRKWWWKRLL]”, the MIC in test [1] stood at 1.95 µg/mL; against Bacillus cereus IFO 3001, 62.5 µg/mL; in [2], 3.9 µg/mL; in test [3], 1.95 µg/mL; in test [4], 3.9 µg/mL; in test [5], 15.6 µg/mL. Moreover, the figures for the MIC in test [6] and in test [7] were 7.8 µg/mL and 15.6 µg/mL, respectively.

As for “LLRKWWWKRLL-NH2 (C-terminus assumed) [compound 1, LLRKWWWKRLL, reference compound]”, the minimal inhibitory concentration (MIC) in test [1] came out at 0.98 µg/mL; against Bacillus cereus IFO 3001, 62.5 µg/mL; in [2] it was 7.8 µg/mL; in test [3], 1.95 µg/mL; in test [4] it was 15.6 µg/mL.

For “RRLLRKWWWKRLL-NH2 (C-terminus assumed) [Sample 2, RRLLRKWWWKRLL]”, the minimal inhibitory concentration (MIC) came to 1.95 µg/mL in test [1]; 62.5 µg/mL in the test with Bacillus cereus IFO 3001; 3.9 µg/mL in test [2]; 1.95 µg/mL in [3]; 15.6 µg/mL in test [8]; 3.9 µg/mL in test [4]. Further, the MIC in test [6] came out at 3.9 µg/mL; in [7] it was 7.8 µg/mL.

On to “RRRLLRKWWWKRLL-NH2 (C-terminus assumed) [Sample 3, RRRLLRKWWWKRLL]”, for which the MIC in [1] was 1.95 µg/mL; in the test on Bacillus cereus IFO 3001, 62.5 µg/mL; in test [2], 7.8 µg/mL; in test [3] it was 1.95 µg/mL; in test [4], 3.9 µg/mL; in test [5], 15.6 µg/mL. In addition, the values for the MIC in [6] and in test [7] were 3.9 µg/mL and 15.6 µg/mL, respectively.

One may read the MIC as the lowest concentration found to suppress growth. Read a low MIC as greater potency.
